Data as given in patent US10975069B2, “Sigma-2 receptor ligand drug conjugates as antitumor compounds, methods of synthesis and uses thereof” (priority 2014, dated 2021).
Where two headings read alike, the source gives them in different places.

Tests used:
AsPC-1 = assay: Viability assay (CELLTITER-GLO), 24 hours treatment; assay type: cell-based, human
Method: (§1) In these experiments, viability assays after 24 hours treatment of human and murine pancreatic cancer cell lines and synovial sarcoma cell lines with SW V-49s or its parent compounds SV119 and Erastin, both singly and in combination, were performed. […] In comparison.
(§2) Cytotoxicity of the drugs was evaluated by CELLTITER-GLO®. Luminescent cell viability assay (Promega, Madison, Wis.). Pancreatic cell lines were plated at a density of 2×10^4/well in white 96 well, clear bottom plates for 24 hours prior to treatment. Drugs were dissolved in DMSO and serially diluted in culture medium to achieve the final concentration of DMSO less than 1%. Cells were then treated for 24 hours and 100 μl of the CELLTITER-GLO® reagent was added to each well. The contents of the plates were mixed using an orbital shaker and subsequently incubated for 10 minutes at room temperature. Luminescence signal was measured using a multi-mode microplate reader (BioTek instruments. Winooski, Vt.). Different drug concentrations were assayed in triplicate. To evaluate the efficacy of the drugs, IC50 of the compounds was calculated on a panel of human and mouse derived pancreatic cancer cell lines in vitro. Cells were treated for 24 hours with SW V-49s, SV119, Erastin, and an equimolar mixture of SV119 and Erastin, then CELLTITER-GLO® viability assay was performed.
AsPC-1 and SYO-1 cells were plated in 96 well plate overnight then treated with similar concentrations of Erastin for 24 hours. Viability assay was performed after 24 hours. […] (p<0.0001), (FIG. 10).

[1] = test system: all human and murine pancreatic cancer cell lines tested; assay: Viability assay on panel of pancreatic cancer cell lines; assay type: cell-based
Method: as §1, §2

[2] = test system: reactive oxygen species (ROS); assay: Reactive oxygen species (ROS) assay in AsPC-1 cells; assay type: cell-based, human; settings: 8 μM; for increase in ROS: 30 min, compared to Erastin, SV119 or combination, FIG. 6; for ROS level compared to others: one hour, FIG. 11B
Method: In FIG. 6, results are shown for reactive oxygen species (ROS) assays of Aspc-1 treated with 8 μM 8 μM SW V-49s, 8 μM Erastin, 8 μM SV119, or 8 μM of an equimolar mixture of Erastin and SV119, or a positive control for 30 min. […] Parent compounds SV119 and Erastin, applied to cells either singly or in combination, had no effect at the same concentration.
ROS measurement was performed using Total ROS/Superoxide Detection Kit (Enzo life sciences, Farmingdale, N.Y.) according to the manufacturer's instructions. Briefly. As PC-1 cells were seeded at a density of 2×10^4 cells/well in a black wall clear bottom 96-well plate for 24 hours. Compounds were dissolved in DMSO and diluted in culture medium to achieve a final concentration of DMSO less than 1%. AsPC-1 cells were treated with 8 μM of SV119, Erastin, and equimolar mixture of SV119 and Erastin. ROS assay was performed one hour after treatment. Cells were treated for one hour, then media was removed and 100 μL/well of ROS/Superoxide Detection Mix was added. Fluorescence signal was measured using a multi-mode microplate reader (Bio-Tek, Winooski, Vt.). The assay was performed in 6 replicates.

[3] = target: T1, cystine/glutamate antiporter (system Xc′) (Homo sapiens, UniProt Q9UPY5); assay: Cystine uptake assay in AsPC-1 cells; assay type: cell-based; settings: FIG. 11A; for reduction in cystine uptake: same concentration of each compound (200 μM), DMSO control
T1 construct: endogenous in cells; host or cells: AsPC-1
T1 sequence (Q9UPY5 1-501): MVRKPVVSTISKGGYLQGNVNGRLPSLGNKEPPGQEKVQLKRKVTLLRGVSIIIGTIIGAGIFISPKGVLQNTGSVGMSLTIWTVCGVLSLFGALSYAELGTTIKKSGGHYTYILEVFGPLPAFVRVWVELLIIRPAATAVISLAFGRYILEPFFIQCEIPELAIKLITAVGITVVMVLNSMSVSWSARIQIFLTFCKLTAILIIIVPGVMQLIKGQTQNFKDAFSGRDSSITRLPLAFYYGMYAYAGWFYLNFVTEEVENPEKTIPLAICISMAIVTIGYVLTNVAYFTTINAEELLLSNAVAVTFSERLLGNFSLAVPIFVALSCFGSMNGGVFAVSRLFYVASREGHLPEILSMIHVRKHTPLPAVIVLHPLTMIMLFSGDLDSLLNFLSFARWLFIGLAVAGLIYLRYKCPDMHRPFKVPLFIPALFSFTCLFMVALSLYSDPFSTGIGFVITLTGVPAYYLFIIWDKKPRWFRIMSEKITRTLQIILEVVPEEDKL
T1 sequence (P08195 1-529 partner): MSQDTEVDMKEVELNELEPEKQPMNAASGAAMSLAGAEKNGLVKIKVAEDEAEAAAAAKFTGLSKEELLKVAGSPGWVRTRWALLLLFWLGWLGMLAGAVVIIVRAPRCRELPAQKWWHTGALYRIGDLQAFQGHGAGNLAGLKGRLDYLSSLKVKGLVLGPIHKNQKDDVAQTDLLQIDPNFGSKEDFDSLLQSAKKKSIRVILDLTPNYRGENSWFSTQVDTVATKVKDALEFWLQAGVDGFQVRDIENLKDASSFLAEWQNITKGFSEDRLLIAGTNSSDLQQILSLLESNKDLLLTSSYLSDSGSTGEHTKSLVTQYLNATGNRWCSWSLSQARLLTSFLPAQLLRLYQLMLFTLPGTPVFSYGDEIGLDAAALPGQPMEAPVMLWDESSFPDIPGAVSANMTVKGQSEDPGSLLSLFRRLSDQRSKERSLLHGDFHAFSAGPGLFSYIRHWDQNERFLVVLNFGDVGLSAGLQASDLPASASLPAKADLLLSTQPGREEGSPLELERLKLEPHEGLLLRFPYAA
Method: In these experiments, cystine uptake assay was performed as previously described (Dixon, S. J. et al. Cell 2012; 149: 1060-1072). Briefly, […] AsPC-1 cells/well were seeded overnight in 6 well plate. The next day, cells were washed twice in pre-warmed Na^+-free uptake buffer (137 mM choline chloride, 3 mM KCl, 1 mM CaCl2, 1 mM MgCl2, 5 mM D-glucose, 0.7 mM K2HPO4, and 10 mM HEPES [pH 7.4]). Subsequently, cells were incubated for 10 minutes at 37° C. in 1 ml of the uptake buffer to deplete cellular amino acids. The buffer was then replaced with 600 μl uptake buffer containing 200 μM of SW V-49s and 0.12 μCi (80-110 mCi/mmol) of L-[3,3′-^14C]-cystine (American Radiolabeled Chemicals. St Louis. Mo.) and incubated for 3 minutes at 37° C. After that, cells were washed three times with ice-cold uptake buffer and lysed in 500 μl of 0.1 M NaOH. To this lysate, 1 ml of scintillation fluid was added, and radioactive counts per minute were obtained by using a scintillation counter.
To evaluate this mechanism. AsPC-1 cells were plated in 6 well plate for 24 hours. Cells were then treated with the same concentration of SV119, Erastin, combination of SV119 and Erastin. SW V-49s, and DMSO as a control. After that, a cystine uptake assay was performed. […] Erastin, and combination of SV 119 and Erastin, respectively (p=0.004, FIG. 11A).

Row | SMILES | IC50 (AsPC-1; 24 hours, mean ± SEM, n ≥ 3, read-out: IC50 ± SEM, AsPC-1) [µM] | IC50 ([1]; 24 hours treatment, against all human and murine pancreatic cancer cell lines tested, read-out: IC50) [µM] | increase in ROS [2] | ROS level compared to others [2] | reduction in cystine uptake [3] [%] | IC50 (AsPC-1; Homo sapiens, ASPC1, 24 h, read-out: IC50 concentration) [µM] | IC50 (AsPC-1; Homo sapiens, ASPC1, 24 hours, mean ± SEM, n ≥ 3, read-out: IC50 ± SEM, AsPC-1) [µM] | reduction of IC50 as compared to equimolar mixture of SV119 and Erastin ([1]; 24 hours, pancreatic cancer cell line panel) | fold less cysteine uptake [3] [fold] | death of cells (AsPC-1; 40 μM, 24 hours, AsPC-1 cells, FIG. 10) [%] | IC50 (AsPC-1; Homo sapiens, ASPC1, 24 h, read-out: IC50 ± SEM, AsPC-1) [µM] | IC50 ([1]; Pancreatic cancer cell, 24 h, 24 hours treatment, against all human and murine pancreatic cancer cell lines tested) [µM] | IC50 ([1]; Pancreatic cancer cell, 24 h, panel of human and mouse derived pancreatic cancer cell lines) [µM]
1 | COc1ccc(C)cc1NC(=O)OC1C[C@H]2CCC[C@@H](C1)N2CCCCCCN (stereo partly shown) [SV119, reference compound] | 111 ± 8.3 | > 54 | no effect | no increase | 25 | – | – | – | – | – | – | – | –
2 | CCOc1ccccc1-n1c(CN2CCN(C(=O)COc3ccc(CNCCCCCCN4C5CCCC4CC(OC(=O)Nc4cc(C)ccc4OC)C5)cc3)CC2)nc2ccccc2c1=O.O=C(O)C(=O)O (stereo not shown) [SW V-49s] | – | – | 50% | 1.5 fold | 85 | 3 | 3.2 ± 0.3 | 17-20 fold | 3.7 | – | – | – | –
3 | CCOc1ccccc1-n1c(C(C)N2CCN(C(=O)COc3ccc(Cl)cc3)CC2)nc2ccccc2c1=O (stereo not shown) [Erastin] | – | – | no effect | no increase | 41 | – | – | – | – | 2 | > 150 | > 100 | > 150
